The values that follow come from US6949571B2, “1,2-dihydropyridine compounds, process for preparation of the same and use thereof” (Eisai Co., Ltd., priority 2000, dated 2005).
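Note: primary rat embryonic cortical neurons grown on an astrocyte layer in 96-well plates, used after at least 8 to 10 days in culture, Fura2-AM fluorescence ratio at 340/380 nm excitation.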

One test concerns AMPA receptor. Conditions: Table 1; primary culture of rat embryo cerebral cortex nerve cells, 2 μM AMPA, 1 μM MK-801.
`O=c1c(-c2ccccc2Cl)cc(-c2ccccn2)cn1-c1ccc(F)cc1` [Example 99, 3-(2-Chlorophenyl)-5-(2-pyridyl)-1-(4-fluorophenyl)-1,2-dihydropyridin-2-one] displayed an IC50 of 100 nM.

In turn, `N#Cc1ccccc1-c1cc(-c2ccccn2)cn(-c2ccc(C=O)cc2)c1=O` [Example 100, 3-(2-Cyanophenyl)-5-(2-pyridyl)-1-(4-formylphenyl)-1,2-dihydropyridin-2-one] registered an IC50 of 400 nM.

With `N#Cc1ccccc1-c1cc(-c2ccccn2)cn(-c2ccccc2C=O)c1=O` [Example 101, 3-(2-Cyanophenyl)-5-(2-pyridyl)-1-(2-formylphenyl)-1,2-dihydropyridin-2-one], 200 nM corresponded to half-maximal inhibition (IC50).

`N#Cc1ccccc1-c1cc(-c2ccccn2)cn(-c2cccc(Cl)c2)c1=O` [Example 102, 3-(2-Cyanophenyl)-5-(2-pyridyl)-1-(3-chlorophenyl)-1,2-dihydropyridin-2-one] had an IC50 of 20 nM.

For the molecule `Cc1cccc(-n2cc(-c3ccccn3)cc(-c3ccccc3C#N)c2=O)c1` [Example 103, 3-(2-Cyanophenyl)-5-(2-pyridyl)-1-(3-tolyl)-1,2-dihydropyridin-2-one], the 50% inhibitory concentration (IC50) is 30 nM.

In turn, `N#Cc1ccccc1-c1cc(-c2ccccn2)cn(-c2cccc(C(F)(F)F)c2)c1=O` [Example 104, 3-(2-Cyanophenyl)-5-(2-pyridyl)-1-(3-trifluoromethylphenyl)-1,2-dihydropyridin-2-one] registered an IC50 of 200 nM.

Consider `N#Cc1ccccc1-c1cc(-c2ccccn2)cn(-c2ccsc2)c1=O` [Example 105, 3-(2-Cyanophenyl)-5-(2-pyridyl)-1-(thiophen-3-yl)-1,2-dihydropyridin-2-one], for which the IC50 is 30 nM.

Molecule `N#Cc1ccccc1-c1cc(-c2ccccn2)cn(-c2ccoc2)c1=O` [Example 106] had an IC50 of 70 nM.

With `Cc1ccc(-n2cc(-c3ccccn3)cc(-c3ccccc3C#N)c2=O)cc1` [Example 107, 3-(2-Cyanophenyl)-5-(2-pyridyl)-1-(4-tolyl)-1,2-dihydropyridin-2-one], the IC50 was determined as 70 nM.

As to `N#Cc1ccccc1-c1cc(-c2ccccn2)cn(-c2ccc(C(F)(F)F)cc2)c1=O` [Example 108, 3-(2-Cyanophenyl)-5-(2-pyridyl)-1-(4-trifluoromethylphenyl)-1,2-dihydropyridin-2-one], half-maximal inhibition (IC50) was put at 30 nM.

`COc1ccc(-n2cc(-c3ccccn3)cc(-c3ccccc3C#N)c2=O)cn1` [Example 109, 3-(2-Cyanophenyl)-5-(2-pyridyl)-1-(2-methoxypyridyn-5-yl)-1,2-dihydropyridin-2-one] had an IC50 of 10 nM.

`N#Cc1ccccc1-c1cc(-c2ccccn2)cn(-c2ccccc2C#N)c1=O` [Example 110, 3-(2-Cyanophenyl)-5-(2-pyridyl)-1-(2-cyanophenyl)-1,2-dihydropyridin-2-one] showed an IC50 of 2000 nM.

The molecule `N#Cc1ccccc1-c1cc(-c2ccccn2)cn(-c2cncnc2)c1=O` [Example 111, 3-(2-Cyanophenyl)-5-(2-pyridyl)-1-(pyrimidin-5-yl)-1,2-dihydropyridin-2-one] gave an IC50 of 400 nM.

Molecule `N#Cc1ccccc1-c1cc(-c2ccccn2)cn(-c2ccc(N3CCCC3)nc2)c1=O` [Example 112, 3-(2-Cyanophenyl)-5-(2-pyridyl)-1-[2-(pyrrolidin-1-yl)-pyridin-5-yl]-1,2-dihydropyridin-2-one] had an IC50 of 600 nM.

The molecule `N#Cc1ccccc1-c1cc(-c2ccccn2)cn(-c2ccc(N3CCN(Cc4ccccc4)CC3)nc2)c1=O` [Example 113, 3-(2-Cyanophenyl)-5-(2-pyridyl)-1-[2-(4-benzylpiperazin-1-yl)-pyridin-5-yl]-1,2-dihydropyridin-2-one] came in with an IC50 of 1200 nM.

The molecule `N#Cc1ccccc1-c1cc(-c2ccccn2)cn(-c2ccc(OCCOCc3ccccc3)nc2)c1=O` [Example 114, 3-(2-Cyanophenyl)-5-(2-pyridyl)-1-(2-benzyloxyethoxypyridin-5-yl)-1,2-dihydropyridin-2-one] came in with an IC50 of 600 nM.

The molecule `N#Cc1ccccc1-c1cc(-c2ccccn2)cn(-c2cncc(COCc3ccccc3)c2)c1=O` [Example 115, 3-(2-Cyanophenyl)-5-(2-pyridyl)-1-(3-benzyloxymethylpyridin-5-yl)-1,2-dihydropyridin-2-one] registered an IC50 of 60 nM.

Consider `CCSc1ccc(-n2cc(-c3ccccn3)cc(-c3ccccc3C#N)c2=O)cn1` [Example 116, 3-(2-Cyanophenyl)-5-(2-pyridyl)-1-(2-ethylthiopyridin-5-yl)-1,2-dihydropyridin-2-one], for which the IC50 turned out to be 200 nM.

Molecule `N#Cc1ccccc1-c1cc(-c2ccccn2)cn(-c2ccncc2)c1=O` [Example 117, 3-(2-Cyanophenyl)-5-(2-pyridyl)-1-(4-pyridyl)-1,2-dihydropyridin-2-one] had an IC50 of 400 nM.

Regarding `COc1cncc(-n2cc(-c3ccccn3)cc(-c3ccccc3C#N)c2=O)c1` [Example 118, 3-(2-Cyanophenyl)-5-(2-pyridyl)-1-(3-methoxypyridin-5-yl)-1,2-dihydropyridin-2-one], the half-inhibitory concentration (IC50) came to 100 nM.

`N#Cc1ccccc1-c1cc(-c2ccccn2)cn(-c2ccc(OCCO)nc2)c1=O` [Example 119, 3-(2-Cyanophenyl)-5-(2-pyridyl)-1-(2-hydroxyethoxypyridin-5-yl)-1,2-dihydropyridin-2-one] gave an IC50 of 1700 nM.

As for `N#Cc1ccccc1-c1cc(-c2ccccn2)cn(-c2ccc(Cl)nc2)c1=O` [Example 120, 3-(2-Cyanophenyl)-5-(2-pyridyl)-1-(2-chloropyridin-5-yl)-1,2-dihydropyridin-2-one], the IC50 was 200 nM.

Molecule `CN1CCN(c2ccc(-n3cc(-c4ccccn4)cc(-c4ccccc4C#N)c3=O)cn2)CC1` [Example 121, 3-(2-Cyanophenyl)-5-(2-pyridyl)-1-[2-(4-methylpiperazin-1-yl)-pyridin-5-yl]-1,2-dihydropyridin-2-one] registered an IC50 of 600 nM.

In turn, `N#Cc1ccccc1-c1cc(-c2ccccn2)cn(-c2ccc(F)nc2)c1=O` [Example 123, 3-(2-Cyanophenyl)-5-(2-pyridyl)-1-(2-fluoropyridin-5-yl)-1,2-dihydropyridin-2-one] registered a half-inhibitory concentration (IC50) of 200 nM.

On to `CCc1ccc(-n2cc(-c3ccccn3)cc(-c3ccccc3C#N)c2=O)cn1` [Example 124, 3-(2-Cyanophenyl)-5-(2-pyridyl)-1-(2-ethylpyridine-5-yl)-1,2-dihydropyridin-2-one], for which half-maximal inhibition (IC50) required 700 nM.

Turning to `O=c1c(-c2ccccc2)cc(-c2ccccn2)cn1-c1cccnc1` [Example 127, 3-Phenyl-5-(2-pyridyl)-1-(3-pyridyl)-1,2-dihydropyridin-2-one], the midpoint of inhibition, the IC50, lay at 400 nM.

In the case of `COc1ccccc1-c1cc(-c2ccccn2)cn(-c2cccnc2)c1=O` [Example 129, 3-(2-Methoxyphenyl)-5-(2-pyridyl)-1-(3-pyridyl)-1,2-dihydropyridin-2-one], the IC50 came to 2600 nM.

In turn, `O=Cc1sccc1-c1cc(-c2ccccn2)cn(-c2cccnc2)c1=O` [Example 130, 3-(2-Formylthiophen-3-yl)-5-(2-pyridyl)-1-(3-pyridyl)-1,2-dihydropyridin-2-one] displayed an IC50 of 900 nM.

In turn, `O=c1c(-c2ccc(Cl)cc2Cl)cc(-c2ccccn2)cn1-c1cccnc1` [Example 131, 3-(2.4-Dichlorophenyl)-5-(2-pyridyl)-1-(3-pyridyl)-1,2-dihydropyridin-2-one] showed an IC50 of 3700 nM.

`O=c1c(-c2ccccc2C(F)(F)F)cc(-c2ccccn2)cn1-c1cccnc1` [Example 132, 3-(2-Trifluoromethylphenyl)-5-(2-pyridyl)-1-(3-pyridyl)-1,2-dihydropyridin-2-one] came in with an IC50 of 3100 nM.

In turn, `O=c1c(-c2ccsc2)cc(-c2ccccn2)cn1-c1cccnc1` [Example 133, 3-(Thiophen-3-yl)-5-(2-pyridyl)-1-(3-pyridyl)-1,2-dihydropyridin-2-one] had an IC50 of 300 nM.

The same test, now with this note: Table 2; suppression of AMPA-induced calcium influx into nerve cells.
Consider `Cc1cccc(C)c1-c1cc(-c2ccccn2)cn(-c2cccnc2)c1=O` [Example 135, 3-(2,6-Dimethylphenyl)-5-(2-pyridyl)-1-(3-pyridyl)-1,2-dihydropyridin-2-one], for which the IC50 was 40 nM.

Consider `NC(=O)c1ccccc1-c1cc(-c2ccccn2)cn(-c2ccccc2)c1=O` [Example 140, 3-(2-Aminocarbonylphenyl)-5-(2-pyridyl)-1-phenyl-1,2-dihydropyridin-2-one], for which the IC50 was found to be 6600 nM.

`O=c1c(-c2ccccc2O)cc(-c2ccccn2)cn1-c1ccccc1` [Example 141, 3-(2-Hydroxyphenyl)-5-(2-pyridyl)-1-phenyl-1,2-dihydropyridin-2-one]: the IC50 turned out to be 700 nM.

On to `O=c1c(-c2ccccc2O)cc(-c2ccccn2)cn1-c1ccc(F)cc1` [Example 142, 3-(2-Hydroxyphenyl)-5-(2-pyridyl)-1-(4-fluorophenyl)-1,2-dihydropyridin-2-one], for which the IC50 came to 2200 nM.

Take `O=c1c(-c2ccccc2Cl)cc(-c2ccccn2)cn1-c1cccc(O)c1` [Example 143, 3-(2-Chlorophenyl)-5-(2-pyridyl)-1-(3-hydroxyphenyl)-1,2-dihydropyridin-2-one]: the IC50 came to 100 nM.

Regarding `CN(C)CCOc1cccc(-n2cc(-c3ccccn3)cc(-c3ccccc3Cl)c2=O)c1` [Example 144, 3-(2-Chlorophenyl)-5-(2-pyridyl)-1-(3-dimethylaminoethoxyphenyl)-1,2-dihydropyridin-2-one], the IC50 turned out to be 10 nM.

`O=c1c(-c2ccccc2CO)cc(-c2ccccn2)cn1-c1ccccc1` [Example 147, 3-(2-Hydroxymethylphenyl)-5-(2-pyridyl)-1-phenyl-1,2-dihydropyridin-2-one]: the IC50 worked out at 1600 nM.

Regarding `N#Cc1ccccc1-c1cc(-c2ccccn2)cn(-c2ccc(CO)cc2)c1=O` [Example 148, 3-(2-Cyanophenyl)-5-(2-pyridyl)-1-(4-hydroxymethylphenyl)-1,2-dihydropyridin-2-one], the IC50 stood at 800 nM.

Regarding `N#Cc1ccccc1-c1cc(-c2ccccn2)cn(-c2ccccc2CO)c1=O` [Example 149, 3-(2-Cyanophenyl)-5-(2-pyridyl)-1-(2-hydroxymethylphenyl)-1,2-dihydropyridin-2-one], the IC50 was 100 nM.

One may read the IC50 as the concentration at which inhibition is half-maximal.
